Square brackets hold non-standard residues; d marks the D form. Peptide text beside a SMILES is read from it. * marks the point of attachment. Dolaproine = CO[C@@H]([C@@H]1CCCN1)[C@@H](C)C(=O)O; Dil = CC[C@H](C)[C@H](NC)[C@@H](CC(=O)O)OC; X1 = C[C@@H](N*)[C@@H](O)c1ccccc1; NMeV = CN[C@H](C(=O)O)C(C)C
Experiments:
MDA-MB-231 Breast = test: Cytotoxic effect by MTT assay, 48 h; conditions: read-out: IC50 Values; MDA-MB-231 Breast, after 48 h of treatment
Protocol: (§1) Cells were treated with Test Items at various concentrations (0.0001 μM-10 μM) for 48 h. The cells corresponding to Positive Control group were treated with Doxorubicin at a concentration ranging from 0.1 μM-100 μM. The Untreated cells were used as Control. After 48 h of incubation, the effect of Test Items on cytotoxicity of cells was determined by MTT assay, the plates were taken out and 20 μl of 5 mg/m1 of MTT 3-(4,5-dimethythiazol-2-yl)-2,5-diphenyl tetrazolium bromide solution was added to all the wells. Cells were incubated for 3 h at 37° C. The supernatant was aspirated. 150 μl of DMSO was added to each well to dissolve formazan crystals. The absorbance of each well was then read at 540 nm using Synergy HT micro plate reader.
(§2) The % Cytotoxicity was calculated using the formula:
(§3) Where, X=Absorbance of cells treated with Test Item; R=Absorbance of Control cells (Untreated cells maintained in growth medium only).
(§4) Selectivity Index was calculated using the formula:
(§5) SI=IC50 in Normal cell/IC50 in cancer cell.
(§6) Activity scores of the Selective Index values were categorized as: • Not selective (SI value ≤1) • Moderately selective (1<SI value <5) • Selective (SI value ≥5)

T24 Bladder = test: Cytotoxic effect by MTT assay, 48 h; conditions: 48 h
Protocol: as §1, §2, §3, §4, §5, §6

PANC-1 Pancreatic = test: Cytotoxic effect by MTT assay, 48 h; conditions: for Percent cytotoxicity wrt control: 48 h
Protocol: as §1, §2, §3, §4, §5, §6

PBMC = test: MTT cytotoxicity assay, PBMC normal; assay type: cell-based; conditions: 48 h
Protocol: (§7) The Untreated cells were used as Control. […] Cells were incubated for 3 h at 37° C. The supernatant was aspirated.
(§8) The % Cytotoxicity was calculated using the formula: […]
as §4, §5

A549 Lungs = test: Cytotoxic effect by MTT assay, 48 h; conditions: for Percent cytotoxicity wrt control: 48 h
Protocol: as §1, §2, §3, §4, §5, §6

T-24 cells = test: Cytotoxicity (cell titer glo, 72 h) human urinary bladder cancer cell line T-24; assay type: cell-based; conditions: T-24 cell line
Protocol: T-24 Cell line were cultured in McCoy's 5a Medium Modified supplemented with 10% FBS and the PA-1 Cell line was cultured in EMEM Media supplemented with 10% FBS. The assay was performed by plating 5,000 cells/well and incubated at 37° C. overnight. […] Each concentration was added in triplicate and media-only wells used as a control. After incubation for 72 h cell titer glow (Promega) reagent (50 μL) was added to each well and the plates shaken for 5 mins and the luminescence was recorded. Percent viability was determined by dividing luminescence of the treated well by the non-treated well and multiplying by 100. Data was analysed using non-linear regression with a logarithmic scale.
5,000 cells/well were plated and incubated at 37° C. overnight. Conjugates/vehicle control dilutions were made in respective media and added to cells. Volume added: 50 uL to each well. […] Each concentration was analysed in triplicates. […] Cell titer glow reagent (volume: 50 uL) was added to each well, the plate was shaken for 5 mins and the luminescence was recorded. […] Percent viability was calculated by dividing the luminescence signal obtained for each treated well by the untreated well (media-only control) and multiplying by 100.

MG-63 cells = test: MTT cytotoxicity assay, MG-63 bone; assay type: cell-based; conditions: Homo sapiens, MG-63, 48 h
Protocol: as §7, §8, §4, §5

PBMC Normal = test: Cytotoxic effect by MTT assay, 48 h; conditions: for Percent cytotoxicity wrt control: PBMC, 48 h
Protocol: as §1, §2, §3

HT29 cells = test: MTT cytotoxicity assay, HT29 colon; assay type: cell-based; conditions: Homo sapiens, HT-29
Protocol: as §7, §8, §4, §5

AGS cells = test: MTT cytotoxicity assay, AGS stomach; assay type: cell-based; conditions: Homo sapiens, 48 h
Protocol: as §7, §8, §4, §5

A549 cells = test: MTT cytotoxicity assay, A549 lungs; assay type: cell-based; conditions: Homo sapiens
Protocol: as §7, §8, §4, §5

U251 MG cells = test: MTT cytotoxicity assay, U251 MG brain; assay type: cell-based; conditions: Homo sapiens
Protocol: as §7, §8, §4, §5

T24 cells = test: MTT cytotoxicity assay, T24 bladder; assay type: cell-based; conditions: Homo sapiens, T-24
Protocol: as §7, §8, §4, §5

Compound: CC[C@H](C)[C@@H]([C@@H](CC(=O)N1CCC[C@H]1[C@H](OC)[C@@H](C)C(=O)N[C@H](C)[C@@H](O)c1ccccc1)OC)N(C)C(=O)[C@@H](NC(=O)[C@@H](NC)C(C)C)C(C)C [MMAE, monomethyl auristatin E] (H-[NMeV]V[Dil][Dolaproine]-X1)
- IC50 (MDA-MB-231 Breast): > 10000 nM
- Percent cytotoxicity wrt control (T24 Bladder; T24, 0.0001 μM): 51.8%
- Percent cytotoxicity wrt control (T24 Bladder; T24, 0.001 μM): 51.1%
- Percent cytotoxicity wrt control (T24 Bladder; T24, 0.1 μM): 44.4%
- Percent cytotoxicity wrt control (T24 Bladder; T24, 1 μM): 44.4%
- Percent cytotoxicity wrt control (PANC-1 Pancreatic; PANC-1, 0.0001 μM): 38.1%
- Percent cytotoxicity wrt control (PANC-1 Pancreatic; PANC-1, 0.001 μM): 41%
- Percent cytotoxicity wrt control (PANC-1 Pancreatic; PANC-1, 0.01 μM): 64.1%
- Percent cytotoxicity wrt control (PANC-1 Pancreatic; PANC-1, 0.1 μM): 67.7%
- Percent cytotoxicity wrt control (PANC-1 Pancreatic; PANC-1, 10 μM): 69.7%
- IC50 (PANC-1 Pancreatic; read-out: IC50 Values, PANC-1 Pancreatic, after 48 h of treatment): 1.5 nM
- IC50 (PBMC; PBMC (normal)): > 10000 nM
- cytotoxicity at 0.0001 µM (PBMC; PBMC, 0.0001 μm, read-out: Percent cytotoxicity wrt control): -2.7%
- Percent cytotoxicity wrt control (A549 Lungs; A549, 0.0001 μM): 27.9%
- Percent cytotoxicity wrt control (A549 Lungs; A549, 0.001 μM): 39.3%
- Percent cytotoxicity wrt control (A549 Lungs; A549, 0.1 μM): 58.8%
- Percent cytotoxicity wrt control (A549 Lungs; A549, 1 μM): 83.6%
- Percent cytotoxicity wrt control (A549 Lungs; A549, 10 μM): 75.8%
- IC50 (A549 Lungs; read-out: IC50 Values, A549 Lungs, after 48 h of treatment): 10 nM
- IC50 (T-24 cells): 0.24 nM
- IC50 (MG-63 cells): 0.1 nM
- Percent cytotoxicity wrt control (PBMC Normal; 0.0001 μM): −2.7%
- Percent cytotoxicity wrt control (PBMC Normal; 0.001 μM): 29.8%
- Percent cytotoxicity wrt control (PBMC Normal; 0.01 μM): 34.3%
- Percent cytotoxicity wrt control (PBMC Normal; 0.1 μM): 34.1%
- Percent cytotoxicity wrt control (PBMC Normal; 1 μM): 26.6%
- Percent cytotoxicity wrt control (PBMC Normal; 10 μM): 32.5%
- IC50 (PBMC Normal; read-out: IC50 Values, PBMC Normal, after 48 h of treatment): > 10000 nM
- cytotoxicity at 0.0001 µM (HT29 cells; HT29, 0.0001 μm, 48 h, read-out: Percent cytotoxicity wrt control): 44.1%
- cytotoxicity at 0.001 µM (HT29 cells; HT29, 0.001 μm, 48 h, read-out: Percent cytotoxicity wrt control): 44.6%
- cytotoxicity at 0.01 µM (HT29 cells; HT29, 0.01 μm, 48 h, read-out: Percent cytotoxicity wrt control): 50.6%
- cytotoxicity at 0.1 µM (HT29 cells; HT29, 0.1 μm, 48 h, read-out: Percent cytotoxicity wrt control): 50.4%
- cytotoxicity at 1 µM (HT29 cells; HT29, 1 μm, 48 h, read-out: Percent cytotoxicity wrt control): 51.9%
- cytotoxicity at 10 µM (HT29 cells; HT29, 10 μm, 48 h, read-out: Percent cytotoxicity wrt control): 55.9%
- IC50 (HT29 cells; HT29, 48 h): 50 nM
- cytotoxicity at 0.0001 µM (AGS cells; 0.0001 μm, read-out: Percent cytotoxicity wrt control): 30.9%
- cytotoxicity at 0.001 µM (AGS cells; 0.001 μm, read-out: Percent cytotoxicity wrt control): 31.7%
- cytotoxicity at 0.01 µM (AGS cells; 0.01 μm, read-out: Percent cytotoxicity wrt control): 32.6%
- cytotoxicity at 0.1 µM (AGS cells; 0.1 μm, read-out: Percent cytotoxicity wrt control): 48.2%
- cytotoxicity at 1 µM (AGS cells; 1 μm, read-out: Percent cytotoxicity wrt control): 48.4%
- cytotoxicity at 10 µM (AGS cells; 10 μm, read-out: Percent cytotoxicity wrt control): 54.4%
- IC50 (AGS cells): 1540 nM
- IC50 (A549 cells; A549, 48 h): 10 nM
- cytotoxicity at 0.0001 µM (A549 cells; A549, 0.0001 μm, 48 h, read-out: Percent cytotoxicity wrt control): 27.9%
- cytotoxicity at 0.001 µM (A549 cells; A549, 0.001 μm, 48 h, read-out: Percent cytotoxicity wrt control): 39.3%
- cytotoxicity at 0.01 µM (A549 cells; A549, 0.01 μm, 48 h, read-out: Percent cytotoxicity wrt control): 43.5%
- cytotoxicity at 0.1 µM (A549 cells; A549, 0.1 μm, 48 h, read-out: Percent cytotoxicity wrt control): 58.8%
- cytotoxicity at 1 µM (A549 cells; A549, 1 μm, 48 h, read-out: Percent cytotoxicity wrt control): 83.6%
- cytotoxicity at 10 µM (A549 cells; A549, 10 μm, 48 h, read-out: Percent cytotoxicity wrt control): 75.8%
- cytotoxicity at 0.0001 µM (U251 MG cells; U-251, 0.0001 μm, 48 h, read-out: Percent cytotoxicity wrt control): 77.8%
- cytotoxicity at 0.001 µM (U251 MG cells; U-251, 0.001 μm, 48 h, read-out: Percent cytotoxicity wrt control): 52.5%
- cytotoxicity at 0.01 µM (U251 MG cells; U-251, 0.01 μm, 48 h, read-out: Percent cytotoxicity wrt control): 58.6%
- cytotoxicity at 0.1 µM (U251 MG cells; U-251, 0.1 μm, 48 h, read-out: Percent cytotoxicity wrt control): 63.1%
- cytotoxicity at 1 µM (U251 MG cells; U-251, 1 μm, 48 h, read-out: Percent cytotoxicity wrt control): 64.7%
- cytotoxicity at 10 µM (U251 MG cells; U-251, 10 μm, 48 h, read-out: Percent cytotoxicity wrt control): 71%
- IC50 (U251 MG cells; U-251, 48 h): 0.2 nM
- cytotoxicity at 0.0001 µM (T24 cells; T24, 0.0001 μm, 48 h, read-out: Percent cytotoxicity wrt control): 51.8%
- cytotoxicity at 0.001 µM (T24 cells; T24, 0.001 μm, 48 h, read-out: Percent cytotoxicity wrt control): 51.1%
- cytotoxicity at 0.01 µM (T24 cells; T24, 0.01 μm, 48 h, read-out: Percent cytotoxicity wrt control): 46.1%
- cytotoxicity at 0.1 µM (T24 cells; T24, 0.1 μm, 48 h, read-out: Percent cytotoxicity wrt control): 44.4%
- cytotoxicity at 1 µM (T24 cells; T24, 1 μm, 48 h, read-out: Percent cytotoxicity wrt control): 44.4%
- cytotoxicity at 10 µM (T24 cells; T24, 10 μm, 48 h, read-out: Percent cytotoxicity wrt control): 53.2%
- IC50 (T24 cells; T24, 48 h): 0.01 nM

Source: US20250302974A1, “LECTIN-DRUG CONJUGATES” (UNICHEM LABORATORIES LIMITED, priority 2021, published 2025)
